US20140205537A1, “LRRK2 INHIBITORS” (ZENOBIA THERAPEUTICS, INC., priority 2011, published 2014)

Assays:
PHKG2 = PHKG2 (Homo sapiens, UniProt P15735); test: Kinase selectivity panel: PHKG2; assay type: biochemical
SYK = SYK (Homo sapiens, UniProt P43405); test: Kinase selectivity panel: SYK; assay type: biochemical
cMet = cMet (Homo sapiens, UniProt P08581); test: Kinase selectivity panel: cMet; assay type: biochemical
AURKA = target: T1, AURKA (Homo sapiens, UniProt O14965); test: Kinase selectivity panel: AURKA; assay type: biochemical
T1 sequence (O14965 1-403): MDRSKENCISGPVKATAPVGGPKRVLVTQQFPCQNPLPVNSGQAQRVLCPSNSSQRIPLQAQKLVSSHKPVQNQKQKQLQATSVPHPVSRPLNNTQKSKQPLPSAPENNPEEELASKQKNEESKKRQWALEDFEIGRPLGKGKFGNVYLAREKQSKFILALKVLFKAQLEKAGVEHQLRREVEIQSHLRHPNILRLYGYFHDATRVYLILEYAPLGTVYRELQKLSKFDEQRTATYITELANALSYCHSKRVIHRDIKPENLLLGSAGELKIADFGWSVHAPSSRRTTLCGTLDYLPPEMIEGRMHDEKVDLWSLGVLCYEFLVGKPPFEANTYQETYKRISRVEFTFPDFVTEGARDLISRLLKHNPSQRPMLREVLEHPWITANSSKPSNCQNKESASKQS

PAK4 = PAK4 (Homo sapiens, UniProt O96013); test: Kinase selectivity panel: PAK4; assay type: biochemical
Chain of PAK4 (O96013 whole entry, species assumed): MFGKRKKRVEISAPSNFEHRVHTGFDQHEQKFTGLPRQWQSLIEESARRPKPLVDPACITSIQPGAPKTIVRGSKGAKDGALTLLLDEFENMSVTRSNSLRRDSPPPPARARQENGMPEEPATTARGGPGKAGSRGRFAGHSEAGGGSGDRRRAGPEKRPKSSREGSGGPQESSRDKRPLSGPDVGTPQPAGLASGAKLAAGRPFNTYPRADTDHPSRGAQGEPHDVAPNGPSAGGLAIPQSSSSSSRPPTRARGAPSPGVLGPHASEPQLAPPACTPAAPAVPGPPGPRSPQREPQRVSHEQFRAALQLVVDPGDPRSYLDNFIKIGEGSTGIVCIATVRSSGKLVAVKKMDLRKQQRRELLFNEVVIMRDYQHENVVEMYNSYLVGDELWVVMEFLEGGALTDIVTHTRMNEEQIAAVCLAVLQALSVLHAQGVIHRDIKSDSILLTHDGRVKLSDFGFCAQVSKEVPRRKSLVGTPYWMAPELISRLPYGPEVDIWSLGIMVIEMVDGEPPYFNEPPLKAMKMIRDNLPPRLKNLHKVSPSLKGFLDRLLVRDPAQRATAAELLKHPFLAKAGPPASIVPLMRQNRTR

GSK3beta = GSK3beta (Homo sapiens, UniProt P49841); test: Kinase selectivity panel: GSK3beta; assay type: biochemical
Chain of GSK3beta (P49841 whole entry, species assumed): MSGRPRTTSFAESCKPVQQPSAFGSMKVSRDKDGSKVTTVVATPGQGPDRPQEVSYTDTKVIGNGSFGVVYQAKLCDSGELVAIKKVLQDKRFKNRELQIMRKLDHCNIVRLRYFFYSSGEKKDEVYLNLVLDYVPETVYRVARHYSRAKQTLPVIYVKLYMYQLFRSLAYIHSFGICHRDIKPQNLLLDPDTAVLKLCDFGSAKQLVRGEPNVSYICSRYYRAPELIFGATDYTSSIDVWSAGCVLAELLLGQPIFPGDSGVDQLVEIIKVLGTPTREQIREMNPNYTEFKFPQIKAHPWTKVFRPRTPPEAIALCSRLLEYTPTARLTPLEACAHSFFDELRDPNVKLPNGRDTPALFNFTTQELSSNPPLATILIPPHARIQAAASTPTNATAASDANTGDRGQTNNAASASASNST

IKKbeta = IKKbeta (Homo sapiens, UniProt O14920); test: Kinase selectivity panel: IKKbeta; assay type: biochemical
DCK2 = DCK2 (Homo sapiens, UniProt Q8N568); test: Kinase selectivity panel: DCK2; assay type: biochemical
DYRK3 = DYRK3 (Homo sapiens, UniProt O43781); test: Kinase selectivity panel: DYRK3; assay type: biochemical
MEK1 = MEK1 (Homo sapiens, UniProt Q02750); test: Kinase selectivity panel: MEK1; assay type: biochemical
MLK1 = MLK1 (Homo sapiens, UniProt P80192); test: Kinase selectivity panel: MLK1; assay type: biochemical
BRAF = BRAF (Homo sapiens, UniProt P15056); test: Kinase selectivity panel: BRAF; assay type: biochemical
JAK3 = JAK3 (Homo sapiens, UniProt P52333); test: Kinase selectivity panel: JAK3; assay type: biochemical
Chain of JAK3 (P52333 whole entry, species assumed): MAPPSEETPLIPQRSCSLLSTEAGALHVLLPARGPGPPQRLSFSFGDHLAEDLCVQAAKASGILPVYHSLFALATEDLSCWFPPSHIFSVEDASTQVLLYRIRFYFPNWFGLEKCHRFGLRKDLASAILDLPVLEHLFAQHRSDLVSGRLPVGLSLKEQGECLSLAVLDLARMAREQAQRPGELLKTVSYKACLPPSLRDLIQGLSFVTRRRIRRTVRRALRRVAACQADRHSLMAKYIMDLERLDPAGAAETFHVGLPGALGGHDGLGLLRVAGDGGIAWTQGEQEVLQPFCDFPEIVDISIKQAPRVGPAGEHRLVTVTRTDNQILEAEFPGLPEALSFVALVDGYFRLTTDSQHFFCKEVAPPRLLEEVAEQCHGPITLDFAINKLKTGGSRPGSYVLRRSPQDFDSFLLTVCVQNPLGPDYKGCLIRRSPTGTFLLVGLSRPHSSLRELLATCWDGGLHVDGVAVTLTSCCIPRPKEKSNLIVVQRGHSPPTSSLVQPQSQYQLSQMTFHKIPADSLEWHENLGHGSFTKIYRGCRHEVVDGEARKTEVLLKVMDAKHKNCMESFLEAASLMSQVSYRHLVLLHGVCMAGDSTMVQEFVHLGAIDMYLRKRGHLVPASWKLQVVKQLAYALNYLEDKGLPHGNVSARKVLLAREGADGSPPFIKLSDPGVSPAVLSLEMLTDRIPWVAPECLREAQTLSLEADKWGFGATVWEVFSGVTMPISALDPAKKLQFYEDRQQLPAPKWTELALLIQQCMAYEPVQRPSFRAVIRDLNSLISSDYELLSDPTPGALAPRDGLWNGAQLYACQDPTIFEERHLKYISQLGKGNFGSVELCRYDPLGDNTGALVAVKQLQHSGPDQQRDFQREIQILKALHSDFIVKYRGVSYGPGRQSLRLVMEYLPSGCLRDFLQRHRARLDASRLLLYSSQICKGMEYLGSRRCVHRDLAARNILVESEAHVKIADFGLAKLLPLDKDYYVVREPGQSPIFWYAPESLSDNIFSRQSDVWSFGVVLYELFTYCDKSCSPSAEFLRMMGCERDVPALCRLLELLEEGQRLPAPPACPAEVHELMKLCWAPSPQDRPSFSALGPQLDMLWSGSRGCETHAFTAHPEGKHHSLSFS

IGF1R = IGF1R (Homo sapiens, UniProt P08069); test: Kinase selectivity panel: IGF1R; assay type: biochemical
BTK = BTK (Homo sapiens, UniProt Q06187); test: Kinase selectivity panel: BTK; assay type: biochemical
Chain of BTK (Q06187 whole entry, species assumed): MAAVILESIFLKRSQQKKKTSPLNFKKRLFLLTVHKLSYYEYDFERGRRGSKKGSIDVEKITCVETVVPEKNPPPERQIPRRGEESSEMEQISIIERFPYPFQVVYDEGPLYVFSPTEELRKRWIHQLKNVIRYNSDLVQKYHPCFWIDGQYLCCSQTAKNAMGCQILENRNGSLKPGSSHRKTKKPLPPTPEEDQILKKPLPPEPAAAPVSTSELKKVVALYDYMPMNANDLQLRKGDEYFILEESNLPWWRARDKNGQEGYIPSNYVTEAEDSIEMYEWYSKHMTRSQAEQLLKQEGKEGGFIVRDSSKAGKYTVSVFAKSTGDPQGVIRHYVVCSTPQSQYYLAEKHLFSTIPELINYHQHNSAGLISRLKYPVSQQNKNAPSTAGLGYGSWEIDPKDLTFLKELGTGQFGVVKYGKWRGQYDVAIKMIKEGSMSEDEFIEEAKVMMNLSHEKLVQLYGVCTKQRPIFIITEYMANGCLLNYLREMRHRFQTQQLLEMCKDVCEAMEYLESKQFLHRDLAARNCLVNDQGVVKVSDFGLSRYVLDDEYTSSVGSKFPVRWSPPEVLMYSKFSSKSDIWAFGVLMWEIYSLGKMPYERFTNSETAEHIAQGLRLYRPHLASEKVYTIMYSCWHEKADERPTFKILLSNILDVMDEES

G2019S LRRK2 = G2019S LRRK2 (Homo sapiens, UniProt Q5S007, G2019S); test: DiscoveRx KINOMEscan binding constant (Kd); design: purchased DiscoveRx (KINOMEscan service); host or cells: E. coli BL21-derived host (T7 phage) or HEK-293; conditions: numeric value
Procedure: Compounds of formulas (II), (I), (I-A), (I-B), (I-C), (I-D), (I-D-1), (I-D-2), (I-E), (I-F), (I-G), (I-H), (I-I), (I-I-1), (I-I-2), (I-J), (I-K), (I-L), (I-M), (I-N), (I-Z-1), (I-Z-2), (I-Z-2-a), (I-Z-2-b), (I-Z-2-c), (I-Z-2-d), (I-Z-3-a), (I-Z-3-b), (I-Z-3-c), or (I-Z-3-d) were tested using DiscoveRx's KINOMEscan™ technology to measure a binding constant (Kd) to wild type and G2019S LRRK2. Kinase-tagged T7 phage strains were prepared in an E. coli host derived from the BL21 strain. E. coli were grown to log-phase and infected with T7 phage and incubated with shaking at 32° C. until lysis. The lysates were centrifuged and filtered to remove cell debris. The remaining kinases were produced in HEK-293 cells and subsequently tagged with DNA for qPCR detection. Streptavidin-coated magnetic beads were treated with biotinylated small molecule ligands for 30 minutes at room temperature to generate affinity resins for kinase assays. The liganded beads were blocked with excess biotin and washed with blocking buffer (SeaBlock (Pierce), 1% BSA, 0.05% Tween 20, 1 mM DTT) to remove unbound ligand and to reduce non-specific binding. Binding reactions were assembled by combining kinases, liganded affinity beads, and test compounds in 1× binding buffer (20% SeaBlock, 0.17×PBS, 0.05% Tween 20, 6 mM DTT). All reactions were performed in polystyrene 96-well plates in a final volume of 0.135 ml. The assay plates were incubated at room temperature with shaking for 1 hour and the affinity beads were washed with wash buffer (lx PBS, 0.05% Tween 20). The beads were then re-suspended in elution buffer (lx PBS, 0.05% Tween 20, 0.5 μM non-biotinylated affinity ligand) and incubated at room temperature with shaking for 30 minutes. The kinase concentration in the eluates was measured by qPCR. An 11-point 3-fold serial dilution of each test compound was prepared in 100% DMSO at 100× final test concentration and subsequently diluted to 1× in the assay (final DMSO concentration=[…]). Most Kds were determined using a compound top concentration=30,000 nM.

FGFR1 = FGFR1 (Homo sapiens, UniProt P11362); test: Kinase selectivity panel: FGFR1; assay type: biochemical
CK1 gamma2 = CK1 gamma2 (Homo sapiens, UniProt P78368); test: Kinase selectivity panel: CK1 gamma2; assay type: biochemical
Chain of CK1 gamma2 (P78368 whole entry): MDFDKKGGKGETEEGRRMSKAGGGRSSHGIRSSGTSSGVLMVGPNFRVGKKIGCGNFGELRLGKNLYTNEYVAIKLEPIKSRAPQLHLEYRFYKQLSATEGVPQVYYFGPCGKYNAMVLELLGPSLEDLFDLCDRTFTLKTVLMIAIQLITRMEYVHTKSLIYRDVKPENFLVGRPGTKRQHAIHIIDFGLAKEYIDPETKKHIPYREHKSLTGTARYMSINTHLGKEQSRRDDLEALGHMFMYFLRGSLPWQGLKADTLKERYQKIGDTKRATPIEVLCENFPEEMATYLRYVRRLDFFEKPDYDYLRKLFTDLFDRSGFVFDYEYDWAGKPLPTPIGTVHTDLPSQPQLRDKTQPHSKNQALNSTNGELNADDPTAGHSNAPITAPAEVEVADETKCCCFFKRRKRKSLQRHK

ERK2 = ERK2 (Homo sapiens, UniProt P28482); test: Kinase selectivity panel: ERK2; assay type: biochemical

Chain of cMet (P08581 25-1390): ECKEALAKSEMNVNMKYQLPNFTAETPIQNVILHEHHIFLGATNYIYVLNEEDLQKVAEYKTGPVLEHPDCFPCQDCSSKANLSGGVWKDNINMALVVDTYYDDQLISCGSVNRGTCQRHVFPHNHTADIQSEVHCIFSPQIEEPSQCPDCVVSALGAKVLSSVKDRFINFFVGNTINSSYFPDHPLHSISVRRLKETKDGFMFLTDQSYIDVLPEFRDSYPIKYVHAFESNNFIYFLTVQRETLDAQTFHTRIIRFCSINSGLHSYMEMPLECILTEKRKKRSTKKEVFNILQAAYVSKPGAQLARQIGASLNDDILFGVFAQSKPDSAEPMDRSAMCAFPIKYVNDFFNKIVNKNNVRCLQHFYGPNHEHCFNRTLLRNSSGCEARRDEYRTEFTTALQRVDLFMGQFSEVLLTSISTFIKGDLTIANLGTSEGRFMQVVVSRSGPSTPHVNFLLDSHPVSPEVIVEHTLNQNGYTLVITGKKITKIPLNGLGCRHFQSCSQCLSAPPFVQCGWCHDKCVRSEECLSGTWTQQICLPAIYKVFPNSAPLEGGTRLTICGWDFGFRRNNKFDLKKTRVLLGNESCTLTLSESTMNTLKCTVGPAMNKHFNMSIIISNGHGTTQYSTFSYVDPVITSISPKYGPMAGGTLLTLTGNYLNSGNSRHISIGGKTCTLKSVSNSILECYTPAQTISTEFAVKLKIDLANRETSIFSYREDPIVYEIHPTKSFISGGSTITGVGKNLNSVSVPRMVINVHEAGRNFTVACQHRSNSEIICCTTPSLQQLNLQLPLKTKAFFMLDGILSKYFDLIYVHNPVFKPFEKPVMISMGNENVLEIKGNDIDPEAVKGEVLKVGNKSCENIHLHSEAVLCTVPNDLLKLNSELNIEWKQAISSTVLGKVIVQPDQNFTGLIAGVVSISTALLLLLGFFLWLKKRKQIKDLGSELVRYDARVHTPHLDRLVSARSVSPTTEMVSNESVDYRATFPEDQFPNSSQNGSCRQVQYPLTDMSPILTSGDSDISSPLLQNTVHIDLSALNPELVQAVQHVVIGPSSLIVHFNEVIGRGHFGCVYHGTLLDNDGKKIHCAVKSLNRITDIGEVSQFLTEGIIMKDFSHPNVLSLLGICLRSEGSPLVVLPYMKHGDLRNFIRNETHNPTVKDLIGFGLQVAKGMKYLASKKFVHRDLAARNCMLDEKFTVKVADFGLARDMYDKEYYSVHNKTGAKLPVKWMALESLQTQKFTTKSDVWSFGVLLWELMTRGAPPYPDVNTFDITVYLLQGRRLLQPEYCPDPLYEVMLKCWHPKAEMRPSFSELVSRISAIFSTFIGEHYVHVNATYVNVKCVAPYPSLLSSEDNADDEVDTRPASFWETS
Chain of PHKG2 (P15735 whole entry, species assumed): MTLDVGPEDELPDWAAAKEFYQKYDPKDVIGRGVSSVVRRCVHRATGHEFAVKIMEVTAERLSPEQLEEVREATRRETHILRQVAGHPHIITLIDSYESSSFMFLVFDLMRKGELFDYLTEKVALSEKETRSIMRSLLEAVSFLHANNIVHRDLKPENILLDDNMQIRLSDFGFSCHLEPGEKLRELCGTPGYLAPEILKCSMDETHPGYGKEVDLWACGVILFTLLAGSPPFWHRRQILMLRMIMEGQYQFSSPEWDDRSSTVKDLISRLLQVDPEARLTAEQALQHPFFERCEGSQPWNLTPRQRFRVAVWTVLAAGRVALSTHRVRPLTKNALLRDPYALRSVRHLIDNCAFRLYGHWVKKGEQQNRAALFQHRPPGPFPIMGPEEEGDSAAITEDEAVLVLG

- inhibition at 0.1 µM (PHKG2): 3%
- inhibition at 0.1 µM (SYK): 8%
- inhibition at 0.1 µM (cMet): 7%
- IC50 (AURKA): > 10000 nM
- inhibition at 0.1 µM (AURKA; @0.1 uM): -1%
- inhibition at 0.1 µM (PAK4): 1%
- inhibition at 0.1 µM (GSK3beta): 0%
- inhibition at 0.1 µM (IKKbeta): 7%
- inhibition at 0.1 µM (DCK2): 8%
- inhibition at 0.1 µM (DYRK3): 2%
- inhibition at 0.1 µM (MEK1): 16%
- inhibition at 0.1 µM (MLK1): -17%
- inhibition at 0.1 µM (BRAF): 18%
- inhibition at 0.1 µM (JAK3): 2%
- inhibition at 0.1 µM (IGF1R): 7%
- inhibition at 0.1 µM (BTK): 4%
- Kd (G2019S LRRK2): 95 nM
- inhibition at 0.1 µM (FGFR1): 9%
- inhibition at 0.1 µM (CK1 gamma2): 6%
- inhibition at 0.1 µM (ERK2): 8%
SMILES: COc1ccc2c(c1)/C(=C/c1cnc(C3CCOCC3)[nH]1)C(=O)N2 [Compound 18, (3Z)-5-methoxy-3-[(2-tetrahydropyran-4-yl-1H-imidazol-5-yl)methylene]indolin-2-one]
